Reference: US9695151B2, “3,4-dihydro-2H-isoquinoline-1-one and 2,3-dihydro-isoindol-1-one compounds” (Hoffmann-La Roche Inc., priority 2013, dated 2017)

What was measured:
CYP11B2 = CYP11B2 (Homo sapiens (Human), UniProt P19099); experiment: G-402 cellular enzyme assay, human CYP11B2 (aldosterone release); assay type: cell-based; settings: G-402 cells, 1 μM Deoxycorticosterone
Excerpt: (§1) Herein we identified the use of the G-402 cell line as a host cell to ectopically express (transiently or stably) enzymes of the CYP11 family. Specifically we developed stable G-402 cells expressing ectopically human CYP11B1, human CYP11B2, human CYP11A1, cynmolgus CYP11B1 or cynomolgus CYP11B2 enzyme activity. Importantly the identified cell line G-402 expresses co-factors (adrenodoxin and adrenodoxin reductase) important for the activity of the CYP11 family and no relevant enzyme activity of the CYP11 family (in comparison to H295R cells) was detected in these cells. Therefore the G-402 cell line is uniquely suited as a host cell for the ectopic expression of enzymes from the CYP11 family.
(§2) G-402 cells can be obtained from ATCC (CRL-1440) and were originally derived from a renal leiomyoblastoma.
(§3) The expression plasmids contains the ORF for either human/cyno CYP11B1 or CYP11B2 under the control of a suitable promoter (CMV-promoter) and a suitable resistance marker (neomycin). Using standard techniques the expression plasmid is transfected into G-402 cells and these cells are then selected for expressing the given resistance markers. Individual cell-clones are then selected and assessed for displaying the desired enzymatic activity using 11-Deoxycorticosterone (Cyp11B2) or 11-Deoxycortisol (Cyp11B1) as a substrate.
(§4) G-402 cells expressing CYP11 constructs were established as described above and maintained in McCoy's 5a Medium Modified, ATCC Catalog No. 30-2007 containing 10% FCS and 400 μg/ml G418 (Geneticin) at 37° C. under an atmosphere of 5% CO2/95% air. Cellular enzyme assays were performed in DMEM/F12 medium containing 2.5% charcoal treated FCS and appropriate concentration of substrate (0.3-10 uM 11-Deoxycorticosterone, 11-Deoxycortisol or Corticosterone). For assaying enzymatic activity, cells were plated onto 96 well plates and incubated for 16 h. An aliquot of the supernatant is then transferred and analyzed for the concentration of the expected product (Aldosterone for CYP11B2; Cortisol for CYP11B1). The concentrations of these steroids can be determined using HTRF assays from CisBio analyzing either Aldosterone or Cortisol.
(§5) Inhibition of the release of produced steroids can be used as a measure of the respective enzyme inhibition by test compounds added during the cellular enzyme assay. The dose dependent inhibition of enzymatic activity by a compound is calculated by means of plotting added inhibitor concentrations (x-axes) vs. measured steroid/product level (y-axes). The inhibition is then calculated by fitting the following 4-parameter sigmoidal function (Morgan-Mercer-Flodin (MMF) model) to the raw data points using the least squares method:
(§6) [formula] wherein, A is the maximum y value, B is the EC50 factor determined using XLFit, C is the minimum y value and D is the slope value.
(§7) EC50 values for compounds claimed herein were tested with the G402-based assay system described. Cyp11B2 enzyme activity was tested in presence of 1 μM Deoxycorticosterone and variable amounts of inhibitors; Cyp11B1 enzyme activity was tested in presence of 1 μM Deoxycortisol and variable amounts of inhibitors.

human CYP11B1 = human CYP11B1 (Homo sapiens (Human), UniProt P15538); experiment: G-402 cellular enzyme assay, human CYP11B1 (cortisol release); assay type: cell-based; settings: G-402 cells, 1 μM Deoxycortisol
Chain of human CYP11B1 (P15538 25-503): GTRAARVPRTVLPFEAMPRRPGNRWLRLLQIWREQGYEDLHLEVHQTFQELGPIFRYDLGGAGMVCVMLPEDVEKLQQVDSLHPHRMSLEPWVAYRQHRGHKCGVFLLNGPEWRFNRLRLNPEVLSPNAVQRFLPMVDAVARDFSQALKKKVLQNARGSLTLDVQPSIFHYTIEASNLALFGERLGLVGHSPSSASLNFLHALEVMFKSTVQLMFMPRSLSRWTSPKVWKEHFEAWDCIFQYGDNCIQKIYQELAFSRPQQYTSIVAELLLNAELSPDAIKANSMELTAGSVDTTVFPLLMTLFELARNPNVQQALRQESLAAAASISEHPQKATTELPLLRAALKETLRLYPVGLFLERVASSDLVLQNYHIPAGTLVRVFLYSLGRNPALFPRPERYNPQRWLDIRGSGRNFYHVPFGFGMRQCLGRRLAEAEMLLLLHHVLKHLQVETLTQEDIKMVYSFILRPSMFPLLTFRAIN
Excerpt: as §1, §2, §3, §4, §5, §6, §7

Chain of CYP11B2 (P19099 25-503): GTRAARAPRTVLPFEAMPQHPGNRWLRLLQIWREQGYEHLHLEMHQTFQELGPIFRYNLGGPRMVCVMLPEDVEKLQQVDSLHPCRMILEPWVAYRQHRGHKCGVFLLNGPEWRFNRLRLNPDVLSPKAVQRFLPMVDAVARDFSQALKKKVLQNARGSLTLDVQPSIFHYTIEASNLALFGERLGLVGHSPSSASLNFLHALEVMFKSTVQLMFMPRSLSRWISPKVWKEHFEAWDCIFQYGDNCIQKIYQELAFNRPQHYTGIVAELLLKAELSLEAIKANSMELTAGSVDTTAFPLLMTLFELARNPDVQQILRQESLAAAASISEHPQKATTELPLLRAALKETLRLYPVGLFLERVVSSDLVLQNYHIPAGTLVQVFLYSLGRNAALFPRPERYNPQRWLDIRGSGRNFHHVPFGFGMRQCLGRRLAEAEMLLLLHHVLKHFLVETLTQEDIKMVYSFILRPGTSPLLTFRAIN

| Structure (SMILES) | EC50 (CYP11B2) | EC50 (human CYP11B1) |
| --- | --- | --- |
| CC(C)S(=O)(=O)N1CC2(CC(Nc3cncc(N4C(=O)c5ccc(Cl)cc5C4(C)C)c3)C2)C1 [Example 38, 5-Chloro-3,3-dimethyl-2-[5-[(2-propan-2-ylsulfonyl-2-azaspiro[3.3]heptan-6-yl)amino]pyridin-3-yl]isoindol-1-one] | 11 nM | 8240 nM |
| CCC(=O)N1CCC(N(C)c2cncc(N3C(=O)c4ccc(Cl)cc4C3(C)C)c2)CC1 [Example 19, 5-Chloro-3,3-dimethyl-2-[5-[methyl-(1-propanoylpiperidin-4-yl)amino]pyridin-3-yl]isoindol-1-one] | 0.7 nM | 2 nM |
| CN(c1cncc(N2C(=O)c3ccc(Cl)cc3C2(C)C)c1)C1CCN(S(C)(=O)=O)CC1 [Example 21, 5-Chloro-3,3-dimethyl-2-[5-[methyl-(1-methylsulfonylpiperidin-4-yl)amino]pyridin-3-yl]isoindol-1-one] | 3 nM | 3 nM |
| CCS(=O)(=O)N1CCC(N(C)c2cncc(N3C(=O)c4ccc(Cl)cc4C3(C)C)c2)CC1 [Example 20, 5-Chloro-2-[5-[(1-ethylsulfonylpiperidin-4-yl)-methylamino]pyridin-3-yl]-3,3-dimethylisoindol-1-one] | 0.8 nM | 0.4 nM |
| CC(=O)N1CC2(CC(Nc3cncc(N4C(=O)c5ccc(Cl)cc5C4(C)C)c3)C2)C1 [Example 35, 2-[5-[(2-Acetyl-2-azaspiro[3.3]heptan-6-yl)amino]pyridin-3-yl]-5-chloro-3,3-dimethylisoindol-1-one] | 449 nM | 6850 nM |
| CCCS(=O)(=O)N1CCC(N(C)c2cncc(N3C(=O)c4ccc(Cl)cc4C3(C)C)c2)C1 (single isomer, unassigned) [Example 18, 5-Chloro-3,3-dimethyl-2-[5-[methyl-[(3R or 3S)-1-propylsulfonylpyrrolidin-3-yl]amino]pyridin-3-yl]isoindol-1-one] | 1 nM | 233 nM |
| CC(C)S(=O)(=O)N1CC(Nc2cncc(N3CCc4cc(Cl)ccc4C3=O)c2)C1 [Example 31, 6-Chloro-2-[5-[(1-propan-2-ylsulfonylazetidin-3-yl)amino]pyridin-3-yl]-3,4-dihydroisoquinolin-1-one] | 34 nM | 3840 nM |
| CC(=O)N1CC(Nc2cncc(N3C(=O)c4ccc(Cl)cc4C3(C)C)c2)C1 [Example 1, 2-[5-[(1-Acetylazetidin-3-yl)amino]pyridin-3-yl]-5-chloro-3,3-dimethylisoindol-1-one] | 38 nM | 5840 nM |
| CCS(=O)(=O)N1CCC(Nc2cncc(N3C(=O)c4ccc(C#N)cc4C3(C)C)c2)CC1 [Example 43, 2-[5-[(1-Ethylsulfonyl-4-piperidyl)amino]-3-pyridyl]-3,3-dimethyl-1-oxo-isoindoline-5-carbonitrile] | 13 nM | 4570 nM |
| CC(=O)N1CC(Nc2cncc(N3CCc4cc(Cl)ccc4C3=O)c2)C1 [Example 32, 2-[5-[(1-Acetylazetidin-3-yl)amino]pyridin-3-yl]-6-chloro-3,4-dihydroisoquinolin-1-one] | 215 nM | 41100 nM |
| CCC(=O)N1CC(Nc2cncc(N3C(=O)c4ccc(C#N)cc4C3(C)C)c2)C1 [Example 45, 3,3-Dimethyl-1-oxo-2-[5-[(1-propanoylazetidin-3-yl)amino]-3-pyridyl]isoindoline-5-carbonitrile] | 122 nM | 5930 nM |
| CCCS(=O)(=O)N1CC(N(C)c2cncc(N3C(=O)c4ccc(Cl)cc4C3(C)C)c2)C1 [Example 14, 5-Chloro-3,3-dimethyl-2-[5-[methyl-(1-propylsulfonylazetidin-3-yl)amino]pyridin-3-yl]isoindol-1-one] | 0.6 nM | 25 nM |
| CC1(C)c2cc(Cl)ccc2C(=O)N1c1cncc(NC2CCCN(S(C)(=O)=O)C2)c1 (single isomer, unassigned) [Example 22, 5-Chloro-3,3-dimethyl-2-[5-[[(3R or 3S)-1-methylsulfonylpiperidin-3-yl]amino]pyridin-3-yl]isoindol-1-one] | 149 nM | 27200 nM |
| CCS(=O)(=O)N1CCCC(Nc2cncc(N3C(=O)c4ccc(Cl)cc4C3(C)C)c2)C1 (single isomer, unassigned) [Example 24, 5-Chloro-2-[5-[[(3R or 3S)-1-ethylsulfonylpiperidin-3-yl]amino]pyridin-3-yl]-3,3-dimethylisoindol-1-one] | 352 nM | 38000 nM |
| CCCS(=O)(=O)N1CCC(N(C)c2cncc(N3C(=O)c4ccc(Cl)cc4C3(C)C)c2)C1 (single isomer, unassigned) [Example 17, 5-Chloro-3,3-dimethyl-2-[5-[methyl-[(3S or 3R)-1-propylsulfonylpyrrolidin-3-yl]amino]pyridin-3-yl]isoindol-1-one] | 1 nM | 129 nM |
| CC(C)S(=O)(=O)N1CCCC(Nc2cncc(N3C(=O)c4ccc(Cl)cc4C3(C)C)c2)C1 (single isomer, unassigned) [Example 26, 5-Chloro-3,3-dimethyl-2-[5-[[(3R or 3S)-1-propan-2-ylsulfonylpiperidin-3-yl]amino]pyridin-3-yl]isoindol-1-one] | 2360 nM | > 30000 nM |
| CCS(=O)(=O)N1CCCC(Nc2cncc(N3C(=O)c4ccc(Cl)cc4C3(C)C)c2)C1 (single isomer, unassigned) [Example 25, 5-Chloro-2-[5-[[(3S or 3R)-1-ethylsulfonylpiperidin-3-yl]amino]pyridin-3-yl]-3,3-dimethylisoindol-1-one] | 443 nM | 13900 nM |
| CCS(=O)(=O)N1CCC(Nc2cncc(N3C(=O)c4ccc(Cl)cc4C3(C)C)c2)CC1 [Example 6, 5-Chloro-2-[5-[(1-ethylsulfonylpiperidin-4-yl)amino]pyridin-3-yl]-3,3-dimethylisoindol-1-one] | 4 nM | 1540 nM |
| CC1(C)c2cc(Cl)ccc2C(=O)N1c1cncc(NC2CCCN(S(C)(=O)=O)C2)c1 (single isomer, unassigned) [Example 23, 5-Chloro-3,3-dimethyl-2-[5-[[(3S or 3R)-1-methylsulfonylpiperidin-3-yl]amino]pyridin-3-yl]isoindol-1-one] | 1200 nM | 18200 nM |
| CCC(=O)N1CC(Nc2cncc(N3C(=O)c4ccc(Cl)cc4C3(C)C)c2)C1 [Example 9, 5-Chloro-3,3-dimethyl-2-[5-[(1-propanoylazetidin-3-yl)amino]pyridin-3-yl]isoindol-1-one] | 10 nM | 2560 nM |
| CCC(=O)N1CC(N(C)c2cncc(N3C(=O)c4ccc(Cl)cc4C3(C)C)c2)C1 [Example 12, 5-Chloro-3,3-dimethyl-2-[5-[methyl-(1-propanoylazetidin-3-yl)amino]pyridin-3-yl]isoindol-1-one] | 2 nM | 86 nM |
| CCS(=O)(=O)N1CC(Nc2cncc(N3CCc4cc(Cl)ccc4C3=O)c2)C1 [Example 30, 6-Chloro-2-[5-[(1-ethylsulfonylazetidin-3-yl)amino]pyridin-3-yl]-3,4-dihydroisoquinolin-1-one] | 61 nM | 15400 nM |
| CCC(=O)N1CC(Nc2cncc(N3C(=O)c4ccc(Cl)cc4[C@H]3C)c2)C1 (single isomer, unassigned) [Example 39, (3R or 3S)-5-Chloro-3-methyl-2-[5-[(1-propanoylazetidin-3-yl)amino]-3-pyridyl]isoindolin-1-one] | 92 nM | 10800 nM |
